Test results from ChEMBL document CHEMBL1743341, “Cytochrome p450 enzymes mechanism based inhibitors: common sub-structures and reactivity” (Curr Drug Metab, 2005).
Blank lines part the entries; values can stand above or below the compound they belong to.

Key:
Format in all cases: ADME
Cytochrome P450 1A2 = molecular target: T1, Cytochrome P450 1A2 (Rattus norvegicus, UniProt P04799); test: (§1) Mechanism based inhibition of rat cytochrome P450 CYP1A2 measured by zolmitriptan metabolism
T1 sequence (P04799 whole entry): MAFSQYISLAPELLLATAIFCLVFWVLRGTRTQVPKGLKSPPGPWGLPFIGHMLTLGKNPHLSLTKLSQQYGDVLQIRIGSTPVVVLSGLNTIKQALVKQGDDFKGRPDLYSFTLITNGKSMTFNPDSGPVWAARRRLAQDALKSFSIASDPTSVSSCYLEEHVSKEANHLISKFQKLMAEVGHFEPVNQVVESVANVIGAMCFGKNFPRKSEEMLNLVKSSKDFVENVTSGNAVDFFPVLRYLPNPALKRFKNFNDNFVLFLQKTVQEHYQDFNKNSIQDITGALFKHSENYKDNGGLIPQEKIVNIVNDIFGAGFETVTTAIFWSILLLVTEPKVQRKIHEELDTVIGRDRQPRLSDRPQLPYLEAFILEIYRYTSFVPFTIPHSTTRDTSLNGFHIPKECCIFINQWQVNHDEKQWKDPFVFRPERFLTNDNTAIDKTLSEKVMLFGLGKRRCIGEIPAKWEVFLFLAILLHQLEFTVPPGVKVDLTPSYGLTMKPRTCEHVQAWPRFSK

CYP1A2 = molecular target: T2, CYP1A2 (Rattus norvegicus, UniProt P04799); test: as §1; settings: rat, probe zolmitriptan (metabolism)
T2 sequence (P04799 whole entry): T1 sequence (P04799 whole entry)

Cytochrome P450 2C5 = Cytochrome P450 2C5 (Oryctolagus cuniculus, UniProt P00179); test: Mechanism based inhibition of rabbit cytochrome P450 CYP2C5
[1] = molecular target: Cholesterol side-chain cleavage enzyme, mitochondrial (Bos taurus, UniProt P00189); test: Mechanism based inhibition of bovine cytochrome P450 CYP11A1; settings: cattle
CYP2B4 = molecular target: T3, CYP2B4 (Oryctolagus cuniculus, UniProt P00178); test: (§2) Mechanism based inhibition of rabbit cytochrome P450 CYP2B4 1-Phenylethanol oxidation was used as probe activity; settings: rabbit, probe 1-phenylethanol (oxidation)
T3 sequence (P00178 whole entry): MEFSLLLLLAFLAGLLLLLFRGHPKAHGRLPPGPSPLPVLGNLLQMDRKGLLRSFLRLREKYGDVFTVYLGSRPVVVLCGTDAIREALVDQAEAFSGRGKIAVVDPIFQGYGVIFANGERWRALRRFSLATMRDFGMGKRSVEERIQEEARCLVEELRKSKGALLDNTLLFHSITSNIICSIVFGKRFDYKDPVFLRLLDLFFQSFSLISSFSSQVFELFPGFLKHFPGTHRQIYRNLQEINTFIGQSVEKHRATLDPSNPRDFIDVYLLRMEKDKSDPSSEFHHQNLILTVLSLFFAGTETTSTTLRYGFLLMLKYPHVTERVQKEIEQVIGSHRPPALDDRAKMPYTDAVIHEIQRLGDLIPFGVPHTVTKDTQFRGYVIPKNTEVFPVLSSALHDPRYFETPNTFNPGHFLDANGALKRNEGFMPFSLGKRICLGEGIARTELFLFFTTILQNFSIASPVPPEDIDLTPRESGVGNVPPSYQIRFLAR

Cytochrome P450 2B4 [2] = molecular target: T4, Cytochrome P450 2B4 (Oryctolagus cuniculus, UniProt P00178); test: as §2
T4 sequence (P00178 whole entry): T3 sequence (P00178 whole entry)

Cytochrome P450 2B4 [3] = molecular target: T4, Cytochrome P450 2B4; test: Mechanism based inhibition of rabbit cytochrome P450 CYP2B4 partition ratio
CYP2B6 = molecular target: T5, CYP2B6 (Homo sapiens, UniProt P20813); test: Mechanism based inhibition of human cytochrome P450 CYP2B6 measured by 7-EFC O-deethylation activity; settings: probe 7-EFC (O-deethylation)
T5 sequence (P20813 whole entry): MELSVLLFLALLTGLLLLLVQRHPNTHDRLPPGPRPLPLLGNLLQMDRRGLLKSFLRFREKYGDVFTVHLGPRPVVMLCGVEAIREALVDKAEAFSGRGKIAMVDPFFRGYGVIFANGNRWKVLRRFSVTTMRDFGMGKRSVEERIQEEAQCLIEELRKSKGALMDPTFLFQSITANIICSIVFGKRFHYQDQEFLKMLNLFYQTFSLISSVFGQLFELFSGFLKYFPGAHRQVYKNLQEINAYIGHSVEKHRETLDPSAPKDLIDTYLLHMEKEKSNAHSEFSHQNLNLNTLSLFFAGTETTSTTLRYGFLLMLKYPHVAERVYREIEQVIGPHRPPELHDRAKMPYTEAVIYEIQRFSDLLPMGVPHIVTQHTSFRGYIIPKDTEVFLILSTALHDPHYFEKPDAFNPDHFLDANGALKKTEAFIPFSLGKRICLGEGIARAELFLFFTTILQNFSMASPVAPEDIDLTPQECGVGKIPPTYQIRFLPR

Cytochrome P450 3A4 = Cytochrome P450 3A4 (Homo sapiens, UniProt P08684); test: (§3) Mechanism based inhibition of human cytochrome P450 CYP3A4 measured by 7BFC O-debenzylation
CYP3A4 = CYP3A4 (Homo sapiens, UniProt P08684); test: as §3; settings: human, probe 7BFC (O-debenzylation)
Cytochrome P450 2C11 = molecular target: T6, Cytochrome P450 2C11 (Rattus norvegicus, UniProt P08683); test: Mechanism based inhibition of rat cytochrome P450 CYP2C11 measured by testosterone hydroxylation at positions 2-alpha and 16-alpha
T6 sequence (P08683 whole entry): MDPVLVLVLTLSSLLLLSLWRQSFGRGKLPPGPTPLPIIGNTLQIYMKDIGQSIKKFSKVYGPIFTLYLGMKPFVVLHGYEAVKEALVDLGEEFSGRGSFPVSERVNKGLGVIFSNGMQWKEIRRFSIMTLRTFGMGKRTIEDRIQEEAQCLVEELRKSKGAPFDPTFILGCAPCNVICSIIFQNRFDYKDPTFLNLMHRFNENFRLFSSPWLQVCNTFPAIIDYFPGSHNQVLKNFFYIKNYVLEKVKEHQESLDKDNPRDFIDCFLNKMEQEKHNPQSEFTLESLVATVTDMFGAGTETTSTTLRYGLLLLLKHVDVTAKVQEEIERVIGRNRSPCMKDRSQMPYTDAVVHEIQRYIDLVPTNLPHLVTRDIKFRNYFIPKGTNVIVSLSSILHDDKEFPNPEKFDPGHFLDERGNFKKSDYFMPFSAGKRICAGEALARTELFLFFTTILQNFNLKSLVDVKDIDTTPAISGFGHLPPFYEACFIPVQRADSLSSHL

Cytochrome P450 3A2 = Cytochrome P450 3A2 (Rattus norvegicus, UniProt P05183); test: Mechanism based inhibition of rat cytochrome P450 CYP3A2 measured by testosterone hydroxylation at positions 2-beta and 6-beta
Cytochrome P450 3A2, sequence (P05183 whole entry): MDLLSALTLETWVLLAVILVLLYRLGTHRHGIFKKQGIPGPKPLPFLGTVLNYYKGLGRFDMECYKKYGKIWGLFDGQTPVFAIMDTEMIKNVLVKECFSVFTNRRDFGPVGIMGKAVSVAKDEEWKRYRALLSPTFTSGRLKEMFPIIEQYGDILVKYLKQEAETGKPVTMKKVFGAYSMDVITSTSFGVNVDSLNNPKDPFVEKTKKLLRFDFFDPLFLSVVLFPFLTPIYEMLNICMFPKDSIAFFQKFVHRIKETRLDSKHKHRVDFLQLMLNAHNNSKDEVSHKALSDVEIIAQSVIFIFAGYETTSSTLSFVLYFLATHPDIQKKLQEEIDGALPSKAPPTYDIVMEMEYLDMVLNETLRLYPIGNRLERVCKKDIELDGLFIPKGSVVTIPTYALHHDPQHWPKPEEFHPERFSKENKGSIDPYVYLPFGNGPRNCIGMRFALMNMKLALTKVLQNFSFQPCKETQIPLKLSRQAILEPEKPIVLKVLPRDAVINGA

CYP3A4, sequence (P08684 whole entry): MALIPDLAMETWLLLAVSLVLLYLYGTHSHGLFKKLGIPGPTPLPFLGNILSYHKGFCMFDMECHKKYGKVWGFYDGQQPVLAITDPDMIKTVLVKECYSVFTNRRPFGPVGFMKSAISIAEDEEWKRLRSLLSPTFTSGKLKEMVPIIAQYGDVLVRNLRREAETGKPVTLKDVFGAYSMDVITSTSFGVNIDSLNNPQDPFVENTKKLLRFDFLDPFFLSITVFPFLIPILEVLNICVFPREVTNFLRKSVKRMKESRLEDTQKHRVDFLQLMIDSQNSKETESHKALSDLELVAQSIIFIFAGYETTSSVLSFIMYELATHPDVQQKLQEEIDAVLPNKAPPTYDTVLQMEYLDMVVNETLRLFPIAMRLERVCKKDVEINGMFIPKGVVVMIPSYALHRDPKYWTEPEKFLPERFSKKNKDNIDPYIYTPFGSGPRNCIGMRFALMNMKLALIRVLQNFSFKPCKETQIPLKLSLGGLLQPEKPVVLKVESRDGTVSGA
Cytochrome P450 3A4, sequence (P08684 whole entry): as above
Cytochrome P450 2C5, sequence (P00179 whole entry): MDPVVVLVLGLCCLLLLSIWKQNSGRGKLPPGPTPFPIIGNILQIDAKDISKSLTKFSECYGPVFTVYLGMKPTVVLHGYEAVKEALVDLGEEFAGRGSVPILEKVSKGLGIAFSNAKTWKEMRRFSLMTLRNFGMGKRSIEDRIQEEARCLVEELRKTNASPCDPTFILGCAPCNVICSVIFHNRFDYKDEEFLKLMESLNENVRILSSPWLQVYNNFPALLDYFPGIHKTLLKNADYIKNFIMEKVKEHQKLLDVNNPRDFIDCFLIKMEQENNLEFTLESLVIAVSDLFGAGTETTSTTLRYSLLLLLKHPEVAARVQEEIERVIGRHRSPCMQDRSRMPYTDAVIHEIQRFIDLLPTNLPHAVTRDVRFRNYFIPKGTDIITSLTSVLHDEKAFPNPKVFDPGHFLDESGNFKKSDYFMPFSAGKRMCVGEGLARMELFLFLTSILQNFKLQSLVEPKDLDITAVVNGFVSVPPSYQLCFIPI
Cholesterol side-chain cleavage enzyme, mitochondrial, sequence (P00189 whole entry): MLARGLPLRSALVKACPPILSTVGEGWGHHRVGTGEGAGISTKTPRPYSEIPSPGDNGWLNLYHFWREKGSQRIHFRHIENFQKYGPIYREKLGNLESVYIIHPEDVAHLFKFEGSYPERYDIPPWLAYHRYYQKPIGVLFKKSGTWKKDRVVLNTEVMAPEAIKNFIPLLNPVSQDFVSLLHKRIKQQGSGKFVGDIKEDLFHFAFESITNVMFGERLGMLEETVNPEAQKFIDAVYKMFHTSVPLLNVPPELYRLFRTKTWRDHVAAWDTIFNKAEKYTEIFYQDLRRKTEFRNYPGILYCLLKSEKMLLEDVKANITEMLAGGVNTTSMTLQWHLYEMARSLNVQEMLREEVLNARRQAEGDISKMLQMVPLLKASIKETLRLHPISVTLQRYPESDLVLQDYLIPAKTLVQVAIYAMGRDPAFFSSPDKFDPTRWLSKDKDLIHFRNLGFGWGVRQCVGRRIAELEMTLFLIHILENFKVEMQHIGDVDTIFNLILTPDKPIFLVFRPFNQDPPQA

Structure (SMILES): C[C@]12CC[C@H]3[C@@H](CC=C4C[C@@H](O)CC[C@@]43C)[C@@H]1CC[C@@H]2C(=O)C(Cl)Cl
mechanism based inhibition (Cytochrome P450 2C5): Cytochrome P450 mechanistic inhibitor: PMID 9168258

Structure (SMILES): CC(C)CCS[C@@H](C)[C@H]1CC[C@H]2[C@@H]3CC=C4C[C@@H](O)CC[C@]4(C)[C@H]3CC[C@]12C
mechanism based inhibition [1]: Cytochrome P450 mechanistic inhibitor: PMID 7599132

Structure (SMILES): [N]=O [NITRIC OXIDE]
mechanism based inhibition (Cytochrome P450 2C11): Cytochrome P450 mechanistic inhibitor: PMID 9400024
mechanism based inhibition (Cytochrome P450 3A2): Cytochrome P450 mechanistic inhibitor: PMID 9400024

The next lines start with the values.

Ki (Cytochrome P450 1A2): 57.4 µM
kinact (CYP1A2): 0.00267 s⁻¹
Structure (SMILES): COCCCC/C(=N\OCCN)c1ccc(C(F)(F)F)cc1 [FLUVOXAMINE]

kinact (CYP2B4): 0.000667 s⁻¹
Ki (Cytochrome P450 2B4 [2]): 2 mM
partition_ratio (Cytochrome P450 2B4 [3]): 2100
Structure (SMILES): COC(=O)c1csc2snnc12

kinact (CYP2B6): 0.00133 s⁻¹
Ki (Cytochrome P450 3A4): 7 µM
kinact (CYP3A4): 0.00233 s⁻¹
Structure (SMILES): CC1(C)C=Cc2c(ccc3c2OC[C@@H](c2ccc(O)cc2O)C3)O1 [GLABRIDIN]
